Ten compounds from ChEMBL document CHEMBL2407010, “Nitric oxide donating anilinopyrimidines: synthesis and biological evaluation as EGFR inhibitors” (Eur J Med Chem, 2013) can be followed below.

A short description of experiment [1]: Antiproliferative activity against human 16HBE cells expressing wild type EGFR after 72 hrs by MTT assay. As to conditions: 16HBE14o-. For orientation: Formazan colour is commonly taken as a measure of viable cells.
For experiment [2], the system named is A-431. Put plainly: Antiproliferative activity against human A431 cells expressing wild type EGFR after 72 hrs by MTT assay. Particulars: A-431, 72 h.
A short description of experiment [3]: Antiproliferative activity against human HCC827 cells expressing EGFR E746_A750 deletion mutant after 72 hrs by MTT assay. Particulars: HCC827, 72 h.
Experiment [4] concerns A549. Put plainly: Antiproliferative activity against wild type EGFR/k-Ras dependent human A549 cells after 72 hrs by MTT assay. Particulars: A549, 72 h.
The subject of experiment [5] is NCI-H1975. Kind of experiment: Antiproliferative activity against human NCI-H1975 cells expressing EGFR L858R/T790M mutant after 72 hrs by MTT assay. As to conditions: NCI-H1975, 72 h.
For experiment [6], the target named is Epidermal growth factor receptor (Homo sapiens, UniProt P00533, L858R/T790M). Put plainly: Inhibition of EGFR L858R/T790M mutant (unknown origin) using Tyr 4 peptide as substrate after 1.5 hrs by FRET based Z'-lyte assay. Type of experiment: protein assay.
Sequence of Epidermal growth factor receptor (Homo sapiens, UniProt P00533, L858R/T790M) (P00533 25-1210 T790M/L858R limits assumed): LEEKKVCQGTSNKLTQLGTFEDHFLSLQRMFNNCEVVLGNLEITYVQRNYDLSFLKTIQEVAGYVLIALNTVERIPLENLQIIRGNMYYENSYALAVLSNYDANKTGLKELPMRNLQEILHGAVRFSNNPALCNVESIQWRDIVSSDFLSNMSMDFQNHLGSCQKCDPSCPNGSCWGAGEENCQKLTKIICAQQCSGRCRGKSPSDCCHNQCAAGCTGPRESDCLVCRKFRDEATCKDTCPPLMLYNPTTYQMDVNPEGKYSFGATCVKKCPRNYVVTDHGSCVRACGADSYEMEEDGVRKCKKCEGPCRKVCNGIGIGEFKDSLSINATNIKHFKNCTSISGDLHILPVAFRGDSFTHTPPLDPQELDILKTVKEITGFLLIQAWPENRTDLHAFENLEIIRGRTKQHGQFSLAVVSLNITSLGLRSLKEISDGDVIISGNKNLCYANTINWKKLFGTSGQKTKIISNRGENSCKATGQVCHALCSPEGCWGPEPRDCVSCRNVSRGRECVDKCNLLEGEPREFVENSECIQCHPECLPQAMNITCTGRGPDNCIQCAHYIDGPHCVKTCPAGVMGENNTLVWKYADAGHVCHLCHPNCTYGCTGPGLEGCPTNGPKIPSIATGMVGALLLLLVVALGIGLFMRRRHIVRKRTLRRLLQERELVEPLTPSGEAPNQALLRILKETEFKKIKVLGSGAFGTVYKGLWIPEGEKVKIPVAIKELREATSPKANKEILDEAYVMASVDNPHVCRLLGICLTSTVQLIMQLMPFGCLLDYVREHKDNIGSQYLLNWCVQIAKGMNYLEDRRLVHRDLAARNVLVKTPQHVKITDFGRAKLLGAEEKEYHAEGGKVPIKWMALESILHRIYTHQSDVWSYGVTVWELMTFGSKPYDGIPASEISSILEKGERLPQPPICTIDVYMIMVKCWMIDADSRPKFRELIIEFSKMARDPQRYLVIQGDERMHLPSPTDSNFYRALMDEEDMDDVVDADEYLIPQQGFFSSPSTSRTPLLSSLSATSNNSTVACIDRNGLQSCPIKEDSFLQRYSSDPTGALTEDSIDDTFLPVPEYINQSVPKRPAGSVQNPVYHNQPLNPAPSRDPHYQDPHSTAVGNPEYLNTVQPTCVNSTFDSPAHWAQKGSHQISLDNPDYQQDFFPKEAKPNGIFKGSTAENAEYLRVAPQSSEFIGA
Experiment [7] concerns the target Epidermal growth factor receptor (Homo sapiens, UniProt P00533, L858R). Put plainly: Inhibition of EGFR L858R mutant (unknown origin) using Tyr 4 peptide as substrate after 1.5 hrs by FRET based Z'-lyte assay. Type of experiment: protein assay.
For experiment [8], the target named is T1, Epidermal growth factor receptor (Homo sapiens, UniProt P00533). Kind of experiment: Inhibition of wild type EGFR (unknown origin) using Tyr 4 peptide as substrate after 1.5 hrs by FRET based Z'-lyte assay.
T1 sequence (P00533 whole entry): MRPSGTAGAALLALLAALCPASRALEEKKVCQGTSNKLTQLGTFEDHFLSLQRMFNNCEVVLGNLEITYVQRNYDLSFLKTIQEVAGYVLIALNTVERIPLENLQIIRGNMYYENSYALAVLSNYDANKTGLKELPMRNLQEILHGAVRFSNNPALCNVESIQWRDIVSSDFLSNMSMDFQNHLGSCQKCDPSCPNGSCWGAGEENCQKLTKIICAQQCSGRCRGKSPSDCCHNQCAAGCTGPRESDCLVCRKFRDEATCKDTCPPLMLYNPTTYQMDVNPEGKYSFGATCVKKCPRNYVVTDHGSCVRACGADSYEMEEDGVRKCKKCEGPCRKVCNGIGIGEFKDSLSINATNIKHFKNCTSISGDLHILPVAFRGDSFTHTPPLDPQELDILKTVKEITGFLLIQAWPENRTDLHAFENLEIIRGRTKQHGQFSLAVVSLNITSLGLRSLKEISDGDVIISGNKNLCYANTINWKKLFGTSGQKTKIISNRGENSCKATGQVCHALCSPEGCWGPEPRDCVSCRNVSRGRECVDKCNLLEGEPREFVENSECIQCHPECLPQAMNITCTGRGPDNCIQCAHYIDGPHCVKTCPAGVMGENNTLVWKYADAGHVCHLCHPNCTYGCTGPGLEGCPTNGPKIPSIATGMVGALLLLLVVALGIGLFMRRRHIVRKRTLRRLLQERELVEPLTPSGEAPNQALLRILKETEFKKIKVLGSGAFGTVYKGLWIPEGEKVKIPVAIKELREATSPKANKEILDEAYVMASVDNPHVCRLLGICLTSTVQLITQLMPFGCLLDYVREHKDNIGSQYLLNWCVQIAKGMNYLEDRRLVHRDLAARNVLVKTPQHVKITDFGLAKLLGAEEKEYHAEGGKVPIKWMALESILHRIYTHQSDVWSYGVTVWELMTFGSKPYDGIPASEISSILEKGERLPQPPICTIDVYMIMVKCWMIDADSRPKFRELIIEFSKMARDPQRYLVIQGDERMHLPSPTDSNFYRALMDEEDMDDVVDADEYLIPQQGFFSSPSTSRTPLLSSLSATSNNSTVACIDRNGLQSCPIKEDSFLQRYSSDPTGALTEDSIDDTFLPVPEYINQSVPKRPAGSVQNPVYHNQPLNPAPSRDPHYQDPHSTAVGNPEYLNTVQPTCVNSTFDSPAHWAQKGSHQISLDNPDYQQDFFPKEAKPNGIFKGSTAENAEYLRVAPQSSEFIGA
Experiment [9] relates to 16HBE14o-. Put plainly: Induction of nitric oxide production in human 16HBE cells expressing wild type EGFR at 100 uM after 72 hrs by Griess assay. Type of experiment: functional, cell-based. In general terms: The Griess reaction detects nitrite, a stable product of nitric oxide.
For experiment [10], the system named is NCI-H1975. Put plainly: Induction of nitric oxide production in human NCI-H1975 cells expressing EGFR L858R/T790M mutant at 100 uM after 72 hrs by Griess assay. Type of experiment: functional, cell-based.
The nature of experiment [11]: Ratio of IC50 for human HCC827 cells expressing EGFR E746_A750 deletion mutant to IC50 for human 16HBE cells.
The subject of experiment [12] is NCI-H1975. Put plainly: Ratio of IC50 for human NCI-H1975 cells expressing EGFR L858R/T790M mutant to IC50 for human 16HBE cells.
Experiment [13] has as its target T1, Epidermal growth factor receptor. Put plainly: Inhibition of EGFR phosphorylation in human NCI-H1975 cells assessed as reduction of phosphorylated Erk level at 1 uM after 6 hrs by Western blotting analysis. The experiment is classed as cell-based. A general note: A western blot detects proteins with antibodies after separation by electrophoresis.
Experiment [14] has the same target. Put plainly: Inhibition of EGFR phosphorylation in human NCI-H1975 cells assessed as reduction of phosphorylated Akt level at 1 uM after 6 hrs by Western blotting analysis. The experiment is classed as cell-based.
Experiment [15] has the same target. Put plainly: Inhibition of EGFR phosphorylation in human NCI-H1975 cells at 0.01 to 1 uM after 6 hrs by Western blotting analysis. Type of experiment: cell-based.
Experiment [16] has as its system NCI-H1975. Put plainly: Antiproliferative activity against human NCI-H1975 cells expressing EGFR L858R/T790M mutant at 1 to 20 uM after 24 hrs by MTT assay in presence of hemoglobin. The experiment is classed as functional, cell-based.
Experiment [17] concerns the target T1, Epidermal growth factor receptor. Kind of experiment: Inhibition of EGFR phosphorylation in human NCI-H1975 cells after 6 hrs by Western blotting analysis. The experiment is classed as cell-based.

The IC50 is the concentration at which inhibition is half-maximal. Low values mean greater potency, high ones weaker potency.

Activity calls are given as the source filed them. No cut-off for these calls is given here.

Sequence of Epidermal growth factor receptor (Homo sapiens, UniProt P00533, L858R) (P00533 25-1210 L858R limits assumed): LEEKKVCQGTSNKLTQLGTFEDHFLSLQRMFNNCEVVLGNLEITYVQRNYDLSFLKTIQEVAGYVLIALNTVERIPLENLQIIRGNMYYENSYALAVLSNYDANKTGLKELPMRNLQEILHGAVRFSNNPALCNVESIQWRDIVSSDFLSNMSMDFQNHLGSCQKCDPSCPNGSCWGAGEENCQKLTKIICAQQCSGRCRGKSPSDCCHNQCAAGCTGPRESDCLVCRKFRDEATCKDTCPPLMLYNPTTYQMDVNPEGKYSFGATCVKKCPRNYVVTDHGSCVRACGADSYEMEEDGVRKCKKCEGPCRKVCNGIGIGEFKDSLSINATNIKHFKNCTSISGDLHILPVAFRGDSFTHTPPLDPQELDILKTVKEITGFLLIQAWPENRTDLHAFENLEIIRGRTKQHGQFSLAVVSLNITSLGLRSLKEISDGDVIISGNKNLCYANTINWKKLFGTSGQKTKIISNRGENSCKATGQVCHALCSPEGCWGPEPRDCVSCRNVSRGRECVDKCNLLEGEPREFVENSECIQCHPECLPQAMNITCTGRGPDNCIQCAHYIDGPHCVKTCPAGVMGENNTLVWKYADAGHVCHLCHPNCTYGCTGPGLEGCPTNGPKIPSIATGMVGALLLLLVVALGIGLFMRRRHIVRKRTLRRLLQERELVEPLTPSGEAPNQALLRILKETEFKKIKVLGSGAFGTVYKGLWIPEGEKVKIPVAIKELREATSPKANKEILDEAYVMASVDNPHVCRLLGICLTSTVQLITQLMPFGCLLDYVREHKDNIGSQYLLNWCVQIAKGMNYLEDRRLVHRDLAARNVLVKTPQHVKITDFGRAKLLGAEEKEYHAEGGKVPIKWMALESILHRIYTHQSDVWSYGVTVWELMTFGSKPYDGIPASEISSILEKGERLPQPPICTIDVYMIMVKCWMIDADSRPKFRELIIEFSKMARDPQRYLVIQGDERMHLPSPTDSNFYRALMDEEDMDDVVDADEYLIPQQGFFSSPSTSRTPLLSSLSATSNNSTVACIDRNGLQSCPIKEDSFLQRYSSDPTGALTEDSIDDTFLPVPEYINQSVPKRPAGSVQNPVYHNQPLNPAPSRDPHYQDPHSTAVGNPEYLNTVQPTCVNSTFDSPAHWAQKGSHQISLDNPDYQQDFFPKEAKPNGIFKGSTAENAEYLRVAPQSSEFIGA

On to `COc1cc(N2CCC(O)CC2)ccc1Nc1ncc(Cl)c(Oc2ccc(COc3no[n+]([O-])c3S(=O)(=O)c3ccccc3)cc2)n1`, for which the 50% inhibitory concentration (IC50) stood at 2.19 µM in [1]; 0.357 µM in [2]; 0.095 µM in [3]; 4.25 µM in experiment [4]; 0.148 µM in experiment [5]; 0.25 µM in experiment [6]. For the same compound, the half-inhibitory concentration (IC50) came to 3.22 µM in experiment [7] and 3.15 µM in experiment [8].

Regarding `C=CC(=O)N1CCN(c2ccc(Nc3ncc(Cl)c(Oc4ccc(COc5no[n+]([O-])c5S(=O)(=O)c5ccccc5)cc4)n3)c(OC)c2)CC1`, the IC50 in experiment [1] worked out at 3.37 µM; in experiment [2] it was 4.66 µM; in experiment [3], 4.9 µM; in [4], 3.9 µM; in experiment [5], 0.154 µM; in experiment [6] it was 0.41 µM. The IC50 in experiment [7] and in experiment [8] was more than 10 µM each time.

As for `COc1cc(N2CCC(O)CC2)ccc1Nc1ncc(Cl)c(Oc2cccc(COc3no[n+]([O-])c3S(=O)(=O)c3ccccc3)c2)n1`, the result in experiment [9] and in experiment [10] was Active. The “Ratio IC50” value in experiment [11] and in experiment [12] was 35 throughout. The concentration for half-maximal inhibition (IC50) in experiment [1] worked out at 3.25 µM; in experiment [2] it was 1.2 µM; in experiment [3], 0.036 µM; in experiment [4], 3.91 µM; in experiment [5], 0.068 µM; in experiment [6], 0.068 µM. Further, the figures for the IC50 in experiment [7] and in experiment [8] were 0.49 µM and 0.24 µM, respectively.

For `COc1cc(N2CCN(C)CC2)ccc1Nc1ncc(Cl)c(Oc2cccc(COc3no[n+]([O-])c3S(=O)(=O)c3ccccc3)c2)n1`, the “Ratio IC50” value in experiment [11] and in experiment [12] was 35 each time. Besides, the IC50 stood at 2.21 µM in experiment [1]; 1.36 µM in experiment [2]; 0.063 µM in experiment [3]; 4.19 µM in experiment [4]; 0.052 µM in experiment [5]; 0.019 µM in experiment [6]. Also, the IC50 worked out at 0.15 µM in experiment [7] and 0.13 µM in [8].

`COc1cc(N2CCN(C)CC2)ccc1Nc1ncc(Cl)c(Oc2ccc(CCOc3no[n+]([O-])c3S(=O)(=O)c3ccccc3)cc2)n1`: the outcome in [10] was Active. The IC50 in experiment [1] turned out to be 2.42 µM; in experiment [2] it was 0.479 µM; in experiment [3] it was 1.93 µM; in experiment [4] it was 3.75 µM; in experiment [5], 0.372 µM; in experiment [6] it was 0.96 µM. Further, the IC50 in experiment [7] came out at 5.36 µM; in experiment [8], 2.94 µM.

Turning to `C=CC(=O)N1CCN(c2ccc(Nc3ncc(Cl)c(Oc4cccc(COc5no[n+]([O-])c5S(=O)(=O)c5ccccc5)c4)n3)c(OC)c2)CC1`, the inhibition entry in [13], in experiment [14] and in [15] was “Active” throughout. In addition, the outcome in [16], in experiment [9] and in [10] was Active. Further, the inhibition entry in experiment [17] is “Dose-dependent effect”. The “Ratio IC50” value in experiment [11] and in experiment [12] was 35 throughout. The IC50 in experiment [1] came to 1.93 µM; in experiment [2] it was 0.348 µM; in [3], 0.022 µM; in [4], 1.72 µM; in experiment [5], 0.055 µM; in [6], 0.045 µM. The IC50 in experiment [7] worked out at 0.37 µM; in experiment [8], 0.35 µM.

Turning to `COc1cc(N2CCN(C)CC2)ccc1Nc1ncc(Cl)c(Oc2ccc(COc3no[n+]([O-])c3S(=O)(=O)c3ccccc3)cc2)n1`, the IC50 in [1] worked out at 2.3 µM; in experiment [2], 2.2 µM; in [3], 0.863 µM; in experiment [4] it was 3.66 µM; in experiment [5] it was 0.221 µM; in [6] it was 0.14 µM. Moreover, the figures for the IC50 in [7] and in experiment [8] were 1.53 µM and 1.09 µM, respectively.

In the case of `COc1cc(N2CCN(C)CC2)ccc1Nc1ncc(Cl)c(Oc2ccc(CCCOc3no[n+]([O-])c3S(=O)(=O)c3ccccc3)cc2)n1`, the result in experiment [10] was Active. Besides, the half-maximal inhibitory concentration (IC50) came to 3.52 µM in [1]; 0.551 µM in [2]; 4.82 µM in [3]; 2.83 µM in [4]; 0.315 µM in experiment [5]; 0.78 µM in experiment [6]. In addition, the results for the IC50 in experiment [7] and in experiment [8] were more than 10 µM and 2.28 µM, respectively.

`COc1cc2ncnc(Nc3ccc(F)c(Cl)c3)c2cc1OCCCN1CCOCC1`: the result in experiment [9] and in experiment [10] was Active.

Turning to `C=CC(=O)Nc1cccc(Oc2nc(Nc3ccc(N4CCN(C)CC4)cc3OC)ncc2Cl)c1`, the inhibition result in [13], in [14] and in experiment [15] was “Active” each time.
